Laboratory results from US20230278993A1, “NOVEL TRICYCLIC AROMATIC HETEROCYCLIC COMPOUND AND PREPARATION METHOD THEREFOR, PHARMACEUTICAL COMPOSITION AND USE THEREOF” (SHANGHAI LONGWOOD BIOPHARMACEUTICALS CO., LTD., priority 2020, published 2023).

molecular target: PD-1/PD-L1 (Homo sapiens (Human), UniProt Q9NZQ7); assay: PD-1/PD-L1 homogeneous time-resolved fluorescence (HTRF) binding assay; details: recombinant human PD-L1 (19-238) His-tagged, human PD-1 (25-167) Fc tag; 25° C., PBS pH 7.4
Protocol: Example A: PD-1/PD-L1 Homogeneous Time-Resolved Fluorescence (HTRF) Binding Assay
Assays were performed in standard black 384-well polystyrene plates and a final volume was 20 μL. The inhibitor was first serially diluted with DMSO and added to the wells of the plate, followed by the addition of other reaction components. The final concentration of DMSO in the assay was 1%. Assays were performed at 25° C. in PBS buffer (pH 7.4) containing 0.05% Tween-20 and 0.1% BSA. Recombinant human PD-L1 protein (19-238) with a His-tagged at the C-terminus was purchased from AcroBiosystems (PD1-H5229). Recombinant human PD-1 protein (25-167) with an Fc tag at the C-terminus was also purchased from AcroBiosystems (PD1-H5257). The PD-L1 and PD-1 proteins were diluted in assay buffer and then […] of the solution was extracted and added to the wells of the plate. Plates were centrifuged and proteins and inhibitors were preincubated for 40 minutes. After incubation, […] of HTRF detection buffer containing europium […] labeled anti-human IgG (PerkinElmer-AD0212), Fc-specific and anti-His SureLight@-Allophycocyanin (APC, PerkinElmer-AD0059H) conjugated antibodies was added. After centrifugation, the plates were incubated at 25° C. for 60 minutes. Data was read in a PHERAstar FS plate reader (665 nm/620 nm ratio). Final concentrations in the assay were ˜3 nM of PD1, 10 nM of PD-L1, 1 nM of europium anti-human IgG, and 20 nM of anti-His-allophycocyanin. Activity data were fitted using GraphPad Prism 5.0 software to derive IC50 values for inhibitors.
The IC50 values of the compounds exemplified in the examples are expressed in the following manner: IC50: +: ≤100 nM; ++: 100 nM˜1000 nM; +++: >1000 nM. The data of the example compounds obtained using the PD-1/PD-L1 homogeneous time-resolved fluorescence (HTRF) binding assay described in Example A were provided in Table 1.

Chain of PD-1/PD-L1 (Q9NZQ7 19-238): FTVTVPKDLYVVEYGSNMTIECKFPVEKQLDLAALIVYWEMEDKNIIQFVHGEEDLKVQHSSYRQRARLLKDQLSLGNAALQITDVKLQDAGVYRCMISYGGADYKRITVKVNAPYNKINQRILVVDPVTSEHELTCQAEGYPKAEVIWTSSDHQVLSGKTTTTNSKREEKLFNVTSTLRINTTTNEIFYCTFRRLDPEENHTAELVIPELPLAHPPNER

Row | Compound | IC50 [nM]
1 | O=C(O)[C@@H]1CCN([C@@H]2CCc3c2cc2cc(-c4cccc(-c5ccccc5)c4Cl)oc2c3F)C1 [Compound 005] | ≤ 100
2 | Cc1c(-c2ccc3c(c2)OCCO3)cccc1-c1cc2cc3c(c(C#N)c2o1)CC[C@H]3N1CC[C@@H](C(=O)O)C1 [Compound 013] | ≤ 100
3 | N#Cc1c2c(cc3nc(-c4cccc(-c5ccc6c(c5)OCCO6)c4Cl)oc13)[C@H](N1CC[C@@H](C(=O)NS(=O)(=O)C3CC3)C1)CC2 [Compound 025] | ≤ 100
4 | N#Cc1c2c(cc3nc(-c4cccc(-c5ccc6c(c5)OCCO6)c4Cl)oc13)[C@@H](N1CC[C@@H](C(=O)O)C1)CC2 [Compound 026] | ≤ 100
5 | Cc1c(-c2ccc3c(c2)OCCO3)cccc1-c1nc2cc3c(c(C#N)c2o1)CC[C@H]3N1CC[C@@H](C(=O)O)C1 [Compound 047] | ≤ 100
6 | Cc1c(-c2ccc3c(c2)OCCO3)cccc1-c1nc2cc3c(c(C#N)c2o1)CC[C@H]3NCCC(=O)O [Compound 049] | ≤ 100
7 | N#Cc1c2c(cc3nc(-c4cccc(-c5ccc6c(c5)OCCO6)c4Cl)oc13)[C@H](NCCC(=O)O)CC2 [Compound 050] | ≤ 100
